Source: patent publication USRE39061E1, “Pharmaceutical formulations comprising labdanes for the treatment of tumors or leukemias” (Medexis S.A., priority 1999, dated 2006)

How the values were obtained:
PBML (stimulating) = assay type: cell-based, human; conditions: for GI50 / TGI: normal PBML, activated by 5 μg/ml PHA-P, 48 h, MTT
Experimental: (§1) Human cancer cell lines were used for in vitro drug testing. The cells were maintained as exponentially proliferating suspension cultures in RPMI-1640 medium (supplemented with 10% heat inactivated foetal calf serum, 2mM L-Glutamine and 50 μg/ml gentamycin and incubated at 37° C., in a humidified atmosphere with 5% CO2. Peripheral blood mononuclear cells (PBML) were also isolated from normal donors using the Ficoll-Hypaque method and cultured as the cancer cell lines.
(§2) To determine the cytotoxicity, log-phase cells from each cell line, resting and activated PBML (1×10^6 cells/ml), were incubated with free compound or liposomal formulation for 48 h, in 96-well flat-bottomed micro plates.
(§3) Cells were added at the appropriate inoculation densities in 96-well micro titer plates and preincubated for 24 hours in a moist atmosphere of 5% CO2 in air at 37 °C, to allow stabilization prior to addition of the test compounds. To determine their activity, the free compound or liposomal formulation were added at the same time to each cell line. Cultures, where an equivalent amount of DMSO was added, used as controls. After the addition of the test agents the cells were cultured in micro plates for an additional 48 h under the same conditions. Each test agent was inoculated at five concentrations (10−4 to 10−8 M). The activity for each compound on each cell line was determined by the MTT method with modifications. Briefly 4 h before the end of the 48 h incubation period, MTT (3-(4,5-dimethylthiazol-2-yl)-2-5 diphenyl tetrazolium bromide, Sigma-Aldrich) dissolved in PBS (Phosphate buffered saline), was added in the cell cultures to give a final concentration of 50 μg/ml. At the end of the 48 h incubation period, DMSO was added to the wells and the optical density was measured with an ANTHOS HT II Microelisa reader, using a test wavelength of 550 nm.
(§4) The data represent the means of experiments done in triplicates and were analyzed using a two-tailed Student's t-test.
(§5) Three parameters GI50, TGI and LC50 were estimated using the MTT method. […] TGI is the concentration of the test agent where 100*(T−T0)/(C−TO)=0 and measures the cytostatic effect. Finally LC50 is the concentration of the drug where 100*(T−TO)/TO=−50 and measures the cytotoxic effect of the drug. At the above formulas used for the calculation of the three parameters, T is the optical density of the test well after a 48 h period of exposure to test compound; TO is the optical density at the time zero (when the drug is added) and C is the optical density of the control well (cells incubated for 48 h with no additives).
(§6) The leukemic cell lines CCRF-CEM, MOLT4, HUT78 (T cells), RPMI 8226 (B cell line), HL60 (promyelocytic cell line), K562 (proerythrocytes) and the multi-drug resistant (MDR) cell lines: CCRF-CEM/C2, HL60/MXl and HL601MX2 were used. All cell lines were grown and tested for viability as described above. Free compounds and encapsulated (as described above) were tested according to the method described under cytotoxic activity (see Biological activity, above).

PBML (resting) = assay type: cell-based, human; conditions: for GI50 / TGI: normal PBML, resting, 48 h, MTT
Experimental: as §1, §2, §3, §4, §5, §6

K562 = experiment: Cytotoxic activity, MTT method, 48 h; assay type: cell-based; conditions: for GI50 / TGI: K562, 48 h, MTT
Experimental: as §1, §2
(§7) The initial inoculation densities for each cell line are presented in table (1) and were determined taking into account cell mass and growth rate (Monks A., Scudiero, D., Skehan P., Shomaker R., Pauli K., Vistica D., Hose C et al. Feasibility of a High-Flux Anticancer Drug screen using a diverse panel of cultured human tumor cell lines. JNCI 1991; 83(11): 757-766 Paul K D, Shomaker R H, Hodes L, Monks A, Scudiero D A, Rubinstein L., Plowman J and Boyd M R. Tumor Cell Lines: Development of Mean Graph and Compare Algorithm. JNCI 1989; 81(14): 1088-1092). Viability of the cells was assessed by trypan blue dye exclusion, at the beginning of the experiment and was always greater than 98%.
as §3, §4, §5, §6

CCRF-CEM = experiment: Cytotoxic activity, MTT method, 48 h; assay type: cell-based; conditions: for GI50 / TGI: CCRF-CEM, 48 h, MTT
Experimental: as §1, §2, §7, §3, §4, §5, §6

MOLT4 = experiment: Cytotoxic activity, MTT method, 48 h; assay type: cell-based; conditions: for GI50 / TGI: MOLT4, 48 h, MTT
Experimental: as §1, §2, §7, §3, §4, §5, §6

HUT78 = experiment: Cytotoxic activity, MTT method, 48 h; assay type: cell-based; conditions: for GI50 / TGI: HUT78, 48 h, MTT
Experimental: as §1, §2, §7, §3, §4, §5, §6

HL60 = experiment: Cytotoxic activity, MTT method, 48 h; assay type: cell-based; conditions: for GI50 / TGI: HL60, 48 h, MTT
Experimental: as §1, §2, §7, §3, §4, §5, §6

RPMI 8226 = experiment: Cytotoxic activity, MTT method, 48 h; assay type: cell-based; conditions: for GI50 / TGI: RPMI 8226, 48 h, MTT
Experimental: as §1, §2, §7, §3, §4, §5, §6

[1] = tested on: leukemic cell lines (MEAN); experiment: Cytotoxic activity, MTT method, mean over the leukemic cell lines; assay type: cell-based; conditions: for GI50 / TGI: MEAN of the nine leukemic cell lines
Experimental: as §1, §2, §7, §3, §4, §5, §6

CCRF-CEM/C2 = assay type: cell-based; conditions: for GI50 / TGI: CCRF-CEM/C2 (MDR), 48 h, MTT
Experimental: as §1, §2
as §7, with “1088-1092).” for “1088-1092). Viability of the cells was assessed by trypan blue dye exclusion, at the beginning of the experiment and was always greater than 98%.”
as §3, §4, §5, §6
(§8) The Resistant Factor (RF) is defined as follows: GI50 of the MDR daughter cell line/GI50 of the parental cell line. The (−) represents a parental cell line more resistant than the daughter MDR line.

HL60/MX1 = assay type: cell-based; conditions: for GI50 / TGI: HL60/MX1 (MDR), 48 h, MTT
Experimental: as §1, §2
as §7, with “1088-1092).” for “1088-1092). Viability of the cells was assessed by trypan blue dye exclusion, at the beginning of the experiment and was always greater than 98%.”
as §3, §4, §5, §6, §8

HL601/MX2 = assay type: cell-based; conditions: for GI50 / TGI: HL601/MX2 (MDR), 48 h, MTT
Experimental: as §1, §2
as §7, with “1088-1092).” for “1088-1092). Viability of the cells was assessed by trypan blue dye exclusion, at the beginning of the experiment and was always greater than 98%.”
as §3, §4, §5, §6, §8

SF-268 (CNS cancer) = experiment: Growth percentages at 100 μM; assay type: cell-based, human
Experimental: as §1, §3
(§9) Three parameters GI50, TGI and LC50 were estimated using the MTT method. […] TGI is the concentration of the test agent where 100*(T−T0)/(C−TO)=0 and measures the cytostatic effect. Finally LC50 is the concentration of the drug where 100*(T−TO)/TO=−50 and measures the cytotoxic effect of the drug. […]

NCI-H460 (Lung cancer) = experiment: Growth percentages at 100 μM; assay type: cell-based, human
Experimental: as §1, §3, §9

MCF-7 (Breast cancer) = experiment: Growth percentages at 100 μM; assay type: cell-based, human
Experimental: as §1, §3, §9

Compound	CC50 (PBML (stimulating))	GI50 (PBML (stimulating))	TGI (PBML (stimulating))	CC50 (PBML (resting))	GI50 (PBML (resting))	TGI (PBML (resting))	CC50 (K562)	GI50 (K562)	TGI (K562)	CC50 (CCRF-CEM)	GI50 (CCRF-CEM)	TGI (CCRF-CEM)	CC50 (MOLT4)	GI50 (MOLT4)	TGI (MOLT4)	CC50 (HUT78)	GI50 (HUT78)	TGI (HUT78)	CC50 (HL60)	GI50 (HL60)	further results
CC(=O)OCC=C(C)CC[C@@H]1[C@@]2(C)CCCC(C)(C)[C@@H]2CC[C@@]1(C)O [Label-13-ene-8, 15-yl acetate, labd-13-ene,8α-ol,15-yl acetate]	> 100 µM	65.9 µM	>>100 μM	> 100 µM	> 100 µM	>>100 μM	200 µM	78.2 µM	162.00 µM	187 µM	69.1 µM	128.17 µM	137 µM	42.8 µM	89.95 µM	200 µM	95.2 µM	164.00 µM	89.3 µM	44.8 µM	TGI (HL60): 67.04 µM; CC50 (RPMI 8226): 95.5 µM; GI50 (RPMI 8226): 41.3 µM; TGI (RPMI 8226): 68.43 µM; CC50 [1]: 136 µM; GI50 [1]: 56.8 µM; TGI [1]: 100.94 µM; CC50 (CCRF-CEM/C2): 111 µM; GI50 (CCRF-CEM/C2): 46.8 µM; TGI (CCRF-CEM/C2): 78.83 µM; CC50 (HL60/MX1): 106 µM; GI50 (HL60/MX1): 53.9 µM; TGI (HL60/MX1): 80.14 µM; CC50 (HL601/MX2): 101 µM; GI50 (HL601/MX2): 38.8 µM; TGI (HL601/MX2): 69.90 µM
CC(=CCO)CC[C@@H]1[C@@]2(C)CCCC(C)(C)[C@@H]2CC[C@@]1(C)O [Label-13-ene-8, 15 diol, labd-13-ene-8α,15-diol]	> 100 µM	66.2 µM	>>100 μM	> 100 µM	> 100 µM	>>100 μM	200 µM	87.1 µM	159 µM	200 µM	75.7 µM	141.08 µM	120 µM	32.3 µM	76.22 µM	200 µM	109 µM	186 µM	91.8 µM	47.7 µM	TGI (HL60): 69.74 µM; CC50 (RPMI 8226): 118 µM; GI50 (RPMI 8226): 42.2 µM; TGI (RPMI 8226): 80.08 µM; CC50 [1]: 139 µM; GI50 [1]: 59.1 µM; TGI [1]: 104.48 µM; CC50 (CCRF-CEM/C2): 108 µM; GI50 (CCRF-CEM/C2): 42.3 µM; TGI (CCRF-CEM/C2): 74.96 µM; CC50 (HL60/MX1): 108 µM; GI50 (HL60/MX1): 52.3 µM; TGI (HL60/MX1): 80.1 µM; CC50 (HL601/MX2): 102 µM; GI50 (HL601/MX2): 43.8 µM; TGI (HL601/MX2): 73.14 µM; Growth Percentages (SF-268 (CNS cancer)): −88%; Growth Percentages (NCI-H460 (Lung cancer)): −80%; Growth Percentages (MCF-7 (Breast cancer)): −89%
C=C[C@](C)(O)CC[C@@H]1[C@@]2(C)CCCC(C)(C)[C@@H]2CC[C@@]1(C)O [Label-14-ene-8, 13 diol, labd-14-ene-8,13-diol]	89 µM	33.1 µM	61.0 µM	93.1 µM	34.6 µM	63.8 µM	79.3 µM	35.6 µM	57.45 µM	85 µM	35 µM	60.00 µM	77.7 µM	31.6 µM	54.66 µM	78.5 µM	33.7 µM	56.09 µM	80 µM	41.5 µM	TGI (HL60): 60.72 µM; CC50 (RPMI 8226): 70.7 µM; GI50 (RPMI 8226): 14.9 µM; TGI (RPMI 8226): 42.84 µM; CC50 [1]: 78.3 µM; GI50 [1]: 32.9 µM; TGI [1]: 55.58 µM; CC50 (CCRF-CEM/C2): 75.8 µM; GI50 (CCRF-CEM/C2): 29.1 µM; TGI (CCRF-CEM/C2): 52.41 µM; CC50 (HL60/MX1): 80.9 µM; GI50 (HL60/MX1): 42.9 µM; TGI (HL60/MX1): 61.90 µM; CC50 (HL601/MX2): 76.8 µM; GI50 (HL601/MX2): 31.4 µM; TGI (HL601/MX2): 54.12 µM
